{
  "source": "ChEMBL document CHEMBL2169841",
  "about": "“A simple solid phase, peptide-based fluorescent assay for the efficient and universal screening of HRV 3C protease inhibitors” (Bioorg Med Chem Lett, 2012)",
  "set-up_in_all_cases": "species or system rhinovirus B14",
  "key": {"[1]": {"assay": "Inhibition of human rhinovirus 14 recombinant N-terminal GST-tagged protease 3c expressed in Escherichia coli DH5alpha using LEVLFQGPSK(Fluoro)G as substrate after 1 hr by discontinuous heterogeneous fluorometric assay"}, "[2]": {"assay": "Inhibition of human rhinovirus 14 recombinant N-terminal GST-tagged protease 3c expressed in Escherichia coli DH5alpha using Staphylococcus superantigen like protein 7-thioredoxin fusion protein as substrate after 1 hr by SDS-PAGE analysis"}, "[3]": {"assay": "Inhibition of human rhinovirus 14 protease 3c by HPLC analysis"}},
  "data": [
    {"smiles": "C=CCC1=C(Br)C(=O)c2ccccc2C1=O", "values": [
      {"measurement": "IC50", "setting": "[1]", "value": 8.8, "unit": "µM"}
    ]},
    {"smiles": "CC(=O)CC1=C(Br)C(=O)c2ccccc2C1=O", "values": [
      {"measurement": "IC50", "setting": "[1]", "value": 62.7, "unit": "µM"}
    ]},
    {"smiles": "CC(O)CC1=C(Br)C(=O)c2ccccc2C1=O", "note": "(configuration not stated)", "values": [
      {"measurement": "IC50", "setting": "[1]", "value": 92.5, "unit": "µM"}
    ]},
    {"smiles": "C[C@H]1CC2=C(C(=O)c3c(O)cc(O)cc3C2=O)[C@H](O)O1", "values": [
      {"measurement": "IC50", "setting": "[2]", "value": 14.1, "unit": "mg/L"},
      {"measurement": "IC50", "setting": "[3]", "value": 13, "unit": "mg/L"},
      {"measurement": "IC50", "setting": "[1]", "value": 53, "unit": "µM"}
    ]},
    {"smiles": "O=C1C=C(Br)C(=O)c2ccccc21", "note": "[2-Bromo-1,4-naphthoquinone]", "values": [
      {"measurement": "IC50", "setting": "[1]", "value": 4.2, "unit": "µM"}
    ]}
  ]
}
